The values below come from US10322111B2, “Chemokine receptor binding heterocyclic compounds with enhanced efficacy” (Genzyme Corporation, priority 2001, dated 2019).

For assay [1], the system named is bone marrow stem cells. The note with it: rats, coronary artery ligation, administered within hours after cardiac ischemia, with or without rhG-CSF. The method, then:
Adult rats are anesthetized and a thoracotomy is performed. The descending branch of the left coronary artery is ligated and not reperfused. […] Control rats are not treated with the reagents. The animals are monitored at one-week intervals by echocardiography and MRI. […] On the day of sacrifice, the hemodynamic functions are analyzed for left ventricle-end diastolic pressure, left ventricle-developed pressure and the rate of rise and fall of left ventricle pressure. The heart is then arrested in diastole and perfused via the abdominal aorta to flush residual blood from the vascular network of the myocardium. […] Several slices are made through the fixed heart and these are embedded in paraffin and sections. The sections are stained and analyzed by light microscopy to determine the size of the infarct in the treated and control animals. […] The immunohistochemical analysis involves the identification of transcription factors and surface markers expressed in early stages of myocyte development.

Assay [2] deals with circulating CD34+ progenitor/stem cells. As to conditions: single dose of 80 μg/kg, cited from earlier work.

Molecules are shown by their SMILES.

`c1cc(CN2CCCNCCNCCCNCC2)ccc1CN1CCCNCCNCCCNCC1` [AMD-3100]: in assay [1], the “cardiac remodeling and scar formation” value is “block to cardiac remodeling and scar formation”; the “mobilization of bone marrow stem cells” value is recorded as “mobilizes bone marrow stem cells rapidly”; the regeneration of myocardium result was “regeneration of the dead myocardium”. Further, the “peak increase in circulating CD34+ progenitor/stem cells” value in assay [2] (6 hour time point) is given as 6 fold. For the same compound, in assay [2], the WBC count is 17,000 μl.
